Tests used:
Pseudomonas aeruginosa [1] = assay: Determination of FIC (10x10 matrix, isobologram); format: cell-based; settings: for concentration in the optimal composition: component of the combination BBIT + ZHMT; for Optimal FIC Concentration: component of the combination BBIT + ZO
Text: (§1) The composition of the present invention has antimicrobial properties and has been found particularly effective against deteriogens for plastics materials, especially in soil burial applications. […] The FIC is the ratio of the amount of each component in the composition relative to its Minimum Inhibitory Concentration (MIC) when used alone. […] When the sum of the FIC values is below one, the mixture is synergistic and when the sum of the FIC values is greater than one, the mixture is antagonistic. The FIC values are preferably determined by constructing an isobologram wherein each component in a matrix array is varied stepwise from a concentration in excess of the MIC down to zero ppm.
(§2) A matrix was constructed in a 10×10 array in microtitre wells wherein the concentration of each chemical was varied stepwise by serial dilution from a concentration of twice the MIC down to zero. As each microtitre plate contains only 96 wells the combination of the two compounds making up the extreme concentrations (highest and lowest) were omitted. Each mixture (100 μl) was added to the plate so that the total volume was maintained at 200 μl. By transferring 100 μl from each well to the adjacent well containing 100 μl nutrient the concentration of the chemical was reduced from twice the MIC to zero in a stepwise manner.
(§3) The presence or absence of growth was determined visually after incubation. The plates containing bacteria were incubated for 16-24 hours at 37° C. and the plates containing fungi were incubated for 40-72 hours at 25° C. From the matrix an isobologram was created and the FIC for each chemical of the composition calculated. The FIC is the ratio of the concentration of chemical which inhibits growth when applied as a combination of chemicals relative to the MIC for that chemical when applied alone.
(§4) The FIC values for the combination of N-n-butyl-1,2-benzisothiazolin-3-one (BBIT) and the 2:1 zinc complex of 3-hydroxy-4-methylthiazol-2(3H)-thione against a bacterium and a fungus are recorded in Tables 2 and 3, respectively.
(§5) The FIC values for N-n-butyl-1,2-benzisothiazolin-3-one and the 2:1 zinc complex of 1-hydroxypyridine-2-thione were determined in similar manner to that described in Example 1.

Aspergillus niger [2] = assay: Determination of FIC (10x10 matrix, isobologram); format: cell-based; settings: for concentration in the optimal composition: component of the combination BBIT + ZHMT; for Optimal FIC Concentration: component of the combination BBIT + ZO
Text: as §1, §2, §3, §4, §5

Aspergillus niger [3] = assay: Determination of MIC (microtitre doubling dilution), fungi; format: cell-based; settings: chemical alone; visual growth after 48 hours at 25° C.
Procedure: (§6) Bacteria were grown to stationary phase (18 hours) in nutrient broth to give approximately 10^9 colony forming units per ml (CFU/ml). A 0.1% (v/v) inoculum was used to seed fresh medium and 100 μl was then added to each well of a microtitre plate, except for the first well which contained 200 μl. By using a doubling dilution technique, the concentration of the chemical under investigation was varied in each well along the ordinate axis. The presence or absence of bacterial growth was determined by visual inspection after 24 hours incubation at 37° C.
(§7) The presence or absence of fungal growth was determined by visual inspection after incubation for 48 hours at 25° C.

Pseudomonas aeruginosa [4] = assay: Determination of MIC (microtitre doubling dilution), bacteria; format: cell-based; settings: chemical alone; visual growth after 24 hours at 37° C.
Procedure: as §6

Aureobasidium pullulans = assay: Determination of MIC (microtitre doubling dilution), fungi; format: cell-based; settings: chemical alone; visual growth after 48 hours at 25° C.
Procedure: as §6, §7

Alternaria alternata [5] = assay: as above; format: cell-based; settings: chemical alone; visual growth after 48 hours at 25° C.
Procedure: as §6, §7

[6] = tested on: mixed inoculum of Aureobasidium pullulans, Fusarium enicillium funicularum, Scopulariopsis brevicaulis and Streptoverticillium waksmanii; assay: Soil burial of plasticised PVC strips, weight loss; settings: PVC strip, 3000 ppm
Procedure: Polvinylchioride sheets were prepared by callendaring the following mixture at 160° C.
100 parts Polyvinylchloride (Evipol SH65/20 ex EVC)
25 parts Dioctylphthalate (ex BP Chemicals)
25 parts Dioctyladipate (ex BP Chemicals)
2 parts Mixed Ca/Zn salt Lankromark LN138 as stabiliser (ex Lankro Chem)
3 parts Lankroflex ED6 as stabiliser/plasticiser (ex Lankro Chem)
5 parts Calcium stearate (ex Aldrich)
0.2 parts Stearic acid (ex Aldrich)
Sheets were fabricated with and without a 1:1 mixture of N-n-butyl-1,2-benzisothiazolin 3-one (BBIT) and the 2:1 zinc complex of 1-hydroxypyridine-2-thione (ZO). […]
Strips of the PVC (8 parts, 12.5×5 cm) were weighed to 4 decimal places, folded and buried in potting compost (John Innes No 2) in a plastic humidity chamber. The compost was sprayed with a mixed inoculum of Aureobasidium pullulans, Fusarium enicillium funicularum, Scopulariopsis brevicaulis and Streptoverticillium waksmanii and incubated at 25° C. The PVC strips were examined at 4 weeks intervals when they were cleaned, dried and weighed. The weight loss is recorded in Table 5 below.

Alternaria alternata [7] = assay: Determination of FIC (10x10 matrix, isobologram); format: cell-based; settings: component of the combination BBIT + ZO
Text: as §1
A matrix was constructed in a 10×10 array in microtitre wells wherein the concentration of each chemical was varied stepwise by serial dilution from a concentration of twice the MIC down to zero. As each microtitre plate contains only 96 wells the combination of the two compounds making up the extreme concentrations (highest and lowest) were omitted. […]
The presence or absence of growth was determined visually after incubation. […] From the matrix an isobologram was created and the FIC for each chemical of the composition calculated. […]
as §5

SMILES	concentration in the optimal composition (Pseudomonas aeruginosa [1])	concentration in the optimal composition (Aspergillus niger [2])	MIC (Aspergillus niger [3])	MIC (Pseudomonas aeruginosa [4])	Optimal FIC Concentration (Pseudomonas aeruginosa [1])	Optimal FIC Concentration (Aspergillus niger [2])	MIC (Aureobasidium pullulans)	MIC (Alternaria alternata [5])	Weight Loss ([6]; 0 weeks)	Weight Loss ([6]; 4 weeks)	Weight Loss ([6]; 8 weeks)	Weight Loss ([6]; 12 weeks)	Weight Loss ([6]; 16 weeks)	Optimal FIC Concentration (Alternaria alternata [7])
Cc1csc(=S)n1[O-].Cc1csc(=S)n1[O-].[Zn+2] [ZHMT, 2:1 zinc complex of 3-hydroxy-4-methylthiazol-2(3H)-thione]	10.6 ppm	5.9 ppm	16 ppm	16 ppm	–	–	–	–	–	–	–	–	–	–
CCCCn1sc2ccccc2c1=O [BBIT, N-n-butyl-1,2-benzisothiazolin-3-one]	111 ppm	17.4 ppm	44.5 ppm	444 ppm	111 ppm	5.3 ppm	3 ppm	67 ppm	0%	1.2%	2.8%	5.6%	8.1%	22 ppm
[O-]n1ccccc1=S.[O-]n1ccccc1=S.[Zn+2] [ZO, 2:1 zinc complex of 1-hydroxypyridine-2-thione]	–	–	11 ppm	33.5 ppm	16.4 ppm	8.3 ppm	1.5 ppm	55 ppm	0%	0.3%	0.8%	1.5%	2.3%	22 ppm
